By IC50 is commonly meant the concentration needed to halve the response being measured.

Converted amounts (≈) assume the structure as drawn.

Assay [1] concerns the target T1, pig kidney microsomal leucyl aminopeptidase, Type IV-S (Sus scrofa, UniProt P15145).
T1 construct: pig kidney microsomal leucyl aminopeptidase, Type IV-S (Sigma-Aldrich) 3.5 mg of protein/ml; purchased Sigma-Aldrich; host or cells: pig kidney (microsomal fraction)
T1 sequence (P15145 1-963): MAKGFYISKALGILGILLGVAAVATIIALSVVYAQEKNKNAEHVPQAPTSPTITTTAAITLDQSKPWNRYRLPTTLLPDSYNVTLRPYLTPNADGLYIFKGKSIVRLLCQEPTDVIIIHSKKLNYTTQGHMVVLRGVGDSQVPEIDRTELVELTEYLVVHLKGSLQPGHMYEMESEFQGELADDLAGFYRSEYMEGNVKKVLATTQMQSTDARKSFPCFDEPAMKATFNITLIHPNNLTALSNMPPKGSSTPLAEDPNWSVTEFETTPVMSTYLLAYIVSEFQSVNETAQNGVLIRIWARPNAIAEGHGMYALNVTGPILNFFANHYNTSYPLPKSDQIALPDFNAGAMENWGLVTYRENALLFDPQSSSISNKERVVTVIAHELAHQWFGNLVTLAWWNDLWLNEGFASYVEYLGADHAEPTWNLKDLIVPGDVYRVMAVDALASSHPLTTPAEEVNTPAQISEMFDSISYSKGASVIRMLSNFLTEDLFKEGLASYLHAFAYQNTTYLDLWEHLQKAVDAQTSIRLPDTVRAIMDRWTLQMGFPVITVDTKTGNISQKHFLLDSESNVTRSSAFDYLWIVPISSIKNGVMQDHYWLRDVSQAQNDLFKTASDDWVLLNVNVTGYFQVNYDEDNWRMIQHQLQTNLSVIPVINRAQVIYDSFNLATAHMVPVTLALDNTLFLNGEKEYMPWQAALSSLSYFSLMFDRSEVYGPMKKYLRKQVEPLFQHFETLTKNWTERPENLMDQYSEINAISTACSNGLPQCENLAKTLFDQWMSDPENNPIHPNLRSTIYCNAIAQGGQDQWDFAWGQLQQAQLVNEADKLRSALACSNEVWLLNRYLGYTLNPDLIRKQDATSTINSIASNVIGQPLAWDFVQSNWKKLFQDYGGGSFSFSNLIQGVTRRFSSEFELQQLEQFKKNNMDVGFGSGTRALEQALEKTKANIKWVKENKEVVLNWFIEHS
The assay is described as follows: Leucyl aminopeptidase inhibition (L-leucine p-nitroanilide substrate, absorbance 405 nm). Format: biochemical. As to conditions: pre-incubation 30 minutes at 37 °C, pH 8.5; IC50 by linear regression. As to the method:
Leucyl aminopeptidase inhibition according to Cahan R., Hetzroni E., Nisnevitch M., Nitzan Y.: Purification and Identification of a Novel Leucine Aminopeptidase from Bacillus Thuringiensis israelensis. Curr. Microbial (2007) 55: 413-419.
• 1. Enzyme: pig kidney microsomal leucyl aminopeptidase, Type IV-S (Sigma-Aldrich) 3.5 mg of protein/ml, 28 U/mg of protein; diluted with 0.02M Tris-HCl + 0.5 mM CaCl2 buffer pH=8.5 until activity 0.01225U achieved • 2. Substrate: L-leucine p-nitroanilide: 4.2 mg / 269 µl DMSO; solution diluted 1:19 with 0.02 M Tris-HCl buffer, pH = 8.5 + 0.5 mM CaCl2 • 3. 0.02 M Tris-HCl buffer, pH = 8.5 + 0.5 mM CaCl2 • 4. DMSO, inhibitor solution in DMSO
5 µl of leucyl aminopeptidase ([…]), 70 µl of Tris, 5 µl of inhibitor solution in different concentrations (in DMSO) were added to the wells of a microtitration plate, followed by pre-incubation for 30 minutes at 37 °C. Next, 20µl of diluted L-leucine p-nitroanilide solution was added, whereupon the reaction mixture was incubated for 20 minutes at 37 °C, with measurement of absorbance changes for wavelength 405 nm (Fluorostar, Omega, BMG Labtech). The control sample for the enzyme contained analogous components, while instead of the inhibitor solution DMSO (5 µl) was added.
For each inhibitor concentration the percentage inhibition was calculated. The inhibitor concentration required for 50% of enzyme activity inhibition (IC50) was calculated based on linear regression data between the percentage inhibition and the concentration for a given inhibitor.

In assay [2] the test system is Balb/3T3 (normal mouse fibroblasts). The assay is described as follows: Cytotoxic activity against normal cells, SRB test. Type of assay: cell-based. The following applies: Mus musculus, Balb/3T3, 72-hour culture, read-out: IC50. The method, then: (§1) 4.3. Cytotoxic activity evaluation against normal cell lines with diverse tissue origins using the SRB test:
(§2) • a) normal mouse fibroblasts (BALB/3T3), • b) normal mammary gland cells (MCF-10), • c) normal human epithelium (HLMEC)
(§3) The stock solution of the tested compound with concentration of 20 mg/ml was prepared day before the analysis by dissolving the preparation in DMSO, followed by storage in -20°C. After 24 hours the preparation was thawed and diluted with the culture medium. The compounds were tested in concentrations of 100, 10, 1, 0.1 0.01 µg/ml.
(§4) The following human cancer cell lines were used in the study: HL-60 (promyelocytic leukemia), HL-60/MX2 (promyelocytic leukemia, line resistant to mitoxantrone), MCF7 (mammary gland cancer), LoVo (colorectal cancer), LoVo/Dx (colorectal cancer with multidrug resistance), HCV29T (bladder cancer), A498 (kidney cancer), A549 (lung cancer) and LNCaP (prostate cancer), as well as normal cell lines: BALB3T3 (normal mouse fibroblasts), MCF-10 (normal mammary gland cells) and HLMEC (normal human endothelium).
(§5) The cells in the phase of logarithmic growth were seeded on a 96-well plate (Sarsted) in quantity of 1 x 10^4 cells/well, and then incubated at 37°C, 5% CO2 for 24 hours. Subsequently, the tested compound was added in different concentrations and the incubation was carried out. […] For each assay the samples containing predetermined preparation concentrations were applied in triplicates. The experiments were repeated 3-5 times.
(§6) Sulphorhodamine B (SRB) is an anionic dye which binds to […] amino acids of cellular proteins. The determination of cytotoxic activity in the assay is based on the measurement of the amount of cellular proteins.
(§7) After the incubation is finished the attached cells are fixed with cold 50% TCA (4°C) at 4°C for 1 hour. Next, each well is washed with water and air dried, repeating this step 5 times.
(§8) 0.4% SRB solution (Sigma-Aldrich) dissolved in 1% acetic acid is added consecutively to each well and the staining is carried out for 30 minutes. The unbound dye is removed and the cells are washed 4 times with 1% acetic acid. Next, the plate is air dried for about 5 minutes.
(§9) The bound dye is dissolved by adding 10 mM Tris-base to each well and then OD is determined for wavelength 540 nm (Multiscan RC photometer, Labsystes, Helsinki).
On the technique in general: In SRB staining, fixed cells bind dye roughly in proportion to their protein.

For assay [3], the system named is HLMEC (normal human epithelium). Description: Cytotoxic activity against normal cells, SRB test. Format: cell-based. The following applies: Homo sapiens, 72-hour culture, read-out: IC50. As to the method:
as §1, §2, §3, §4, §5, §6, §7, §8, §9

Assay [4] deals with MCF-10 (normal mammary gland cells). Description: Cytotoxic activity against normal cells, SRB test. As to conditions: Homo sapiens, MCF10, MCF-10, 72-hour culture, read-out: IC50. Format: cell-based. As to the method:
as §1, §2, §3, §4, §5, §6, §7, §8, §9

Assay [5] deals with HL-60 (promyelocytic leukemia). Description: Anti-proliferative activity, MTT test. Type of assay: cell-based, human. As to conditions: Homo sapiens, HL-60, 72-hour culture, read-out: IC50. As to the method:
(§10) 4.2. Anti-proliferative activity evaluation using the MTT test [Marcinkowska et al.: J. Steroid Biochem. Mol. 76: 71-78, 1998] against human cancer cell lines with diverse tissue origins and determination of the IC50 concentration: • a) promyelocytic leukemia HL-60, • b) promyelocytic leukemia HL-60/MX2 (with multidrug resistance)
as §3, §4, §5
(§11) The method involves a measurement of cell number increase inhibition utilizing the redox activity of mitochondria. The determination of biological activity with the MTT (3-(4,5-dimethylthiazol-2-yl)-2,5-diphenyltetrazolium bromide) assay is based on the assumption that reduction of the dye occurs only in viable cells. As a result of mitochondrial dehydrogenase activity the water-soluble tetrazolium salt (thiazolyl blue […] - MTT) is converted to water-insoluble formazan crystals. The quantity of the formed formazan crystals is proportional to the number of cells.
(§12) 3-4 hours before the end of cell incubation 20 µl of MTT solution (5 mg/ml) was added to each well. Next, 80 µl of dissolving mixture (with the following composition: 225 ml DMF (POCh), 67.5 g SDS (Sigma-Aldrich), 275 ml distilled H2O) was added. After 24 hours, formazan crystals were dissolved and OD of the samples was measured for wavelength 570 nm (Multiskan PC photometer, Labsystem, Helsinki).
On the technique in general: Formazan colour is commonly taken as a measure of viable cells.

Assay [6] concerns HL-60 MX2 (promyelocytic leukemia with multidrug resistance). Description: Anti-proliferative activity, MTT test. Type of assay: cell-based, human. As to conditions: Homo sapiens, HL60/MX2, HL-60 MX2, 72-hour culture, read-out: IC50. As to the method: as §10, §3, §4, §5, §11, §12
The test system of assay [7] is A498 (kidney cancer). The assay is described as follows: Anti-proliferative activity, SRB test. As to conditions: Homo sapiens, A498, 72-hour culture, read-out: IC50. Format: cell-based, human.
Description: (§13) 4.1. Anti-proliferative activity evaluation using the SRB test [Skehan et al., J. Natl. Cancer Inst., 82: 1107-1112, 1990] against human cancer cell lines with diverse tissue origins and determination of the IC50 concentration: • a) colorectal cancer LoVo, • b) colorectal cancer LoVo/DX (with multidrug resistance), • c) breast cancer MCF-7, • d) prostate cancer LNCaP, • e) bladder cancer HCV29T, • f) kidney cancer A498, • g) lung cancer A549
as §3, §4, §5, §6, §7, §8, §9

The test system of assay [8] is A549 (lung cancer). Description: Anti-proliferative activity, SRB test. Format: cell-based, human. As to conditions: Homo sapiens, A549, 72-hour culture, read-out: IC50.
Description: as §13, §3, §4, §5, §6, §7, §8, §9

The subject of assay [9] is HCV29T (bladder cancer). Description: Anti-proliferative activity, SRB test. As to conditions: Homo sapiens, 72-hour culture, read-out: IC50. Format: cell-based, human.
Description: as §13, §3, §4, §5, §6, §7, §8, §9

Assay [10] concerns LNCaP (prostate cancer). Description: Anti-proliferative activity, SRB test. Format: cell-based, human. The following applies: Homo sapiens, 72-hour culture, read-out: IC50.
Description: as §13, §3, §4, §5, §6, §7, §8, §9

The subject of assay [11] is Lovo (colorectal cancer). The assay is described as follows: Anti-proliferative activity, SRB test. As to conditions: Homo sapiens, 72-hour culture, read-out: IC50. Format: cell-based, human.
Description: as §13, §3, §4, §5, §6, §7, §8, §9

In assay [12] the test system is Lovo/Dx (colorectal cancer with multidrug resistance). The assay is described as follows: Anti-proliferative activity, SRB test. Type of assay: cell-based, human. The following applies: Homo sapiens, 72-hour culture, read-out: IC50.
Description: as §13, §3, §4, §5, §6, §7, §8, §9

Assay [13] relates to MCF-7 (breast cancer). The assay is described as follows: Anti-proliferative activity, SRB test. As to conditions: Homo sapiens, MCF7, MCF-7, 72-hour culture, read-out: IC50. Type of assay: cell-based, human.
Description: as §13, §3, §4, §5, §6, §7, §8, §9

In assay [1], `CCOC(=O)C1(C(=O)OCC)Cc2cc(O)cc(O)c2C=N1` [Compound 4, 6,8-dihydroxy-3,4-dihydroisoquinoline-3,3-dicarboxylic acid diethyl ester] returned an IC50 of 1350 µM.

As for `O=C(O)C1Cc2cc(O)c(O)c(O)c2C=N1` (centres unmarked) [Compound 8, 6,7,8-trihydroxy-3,4-dihydroisoquinoline-3-carboxylic acid], the IC50 in assay [1] turned out to be 3800 µM; in assay [2], 52.5 ± 22.3 µg/mL (≈ 235 µM); in assay [3], 33.4 ± 5 µg/mL (≈ 150 µM); in [4], 18.9 ± 11.4 µg/mL (≈ 84.7 µM); in assay [5] it was 27.7 ± 4.3 µg/mL (≈ 124 µM); in assay [6] it was 33.2 ± 2.7 µg/mL (≈ 149 µM). Besides, the IC50 in [7] came to 40 ± 18.4 µg/mL (≈ 179 µM); in [8] it was 44.3 ± 6.7 µg/mL (≈ 198 µM); in [9], 28.7 ± 7.2 µg/mL (≈ 129 µM); in assay [10], 30.9 ± 5.7 µg/mL (≈ 138 µM); in [11], 33.6 ± 9.5 µg/mL (≈ 151 µM); in assay [12], 30.1 ± 2.3 µg/mL (≈ 135 µM). The IC50 in assay [13] was 18.9 ± 11.4 µg/mL (≈ 84.7 µM).

The values are drawn from patent publication EP3027591B1, “NOVEL DERIVATIVES OF A 3,4-DIHYDROISOQUINOLINE-3-CARBOXYLIC ACID HAVING ANTI-CANCER PROPERTIES, A METHOD FOR THEIR SYNTHESIS, PHARMACEUTICAL COMPOSITIONS COMPRISING SAID DERIVATIVES, AND THEIR USE” (Narodowy Instytut Zdrowia Publicznego Panstwowy Zaklad …, priority 2013, dated 2015).
